Test systems include SNB-19 CNS; RPMI-8226 leukemia; COLO 205 colon; OVCAR-4 ovarian; HCC-2998 colon; ACHN renal; SK-MEL-5 melanoma; MDA-MB-435; CCRF-CEM leukemia; TK-10 renal.
Holding throughout (assay): DTP human tumour cell line panel, 48 h

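Assay format: 96-well plates, 48-hour exposure. GI50 is the concentration that inhibits growth by half. TGI: concentration producing complete growth inhibition.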

By GI50 is commonly meant the concentration at which growth is held to half of that of the control. Usually TGI stands for the concentration giving total growth inhibition. Lower therefore signals more potent growth arrest. On to `CCc1ccccc1-n1c(N)c(C#N)c(-c2ccc(OC)c(OC)c2)c(C#N)c1=O`, for which the GI50 was 20.5 µM in the experiment with SNB-19 CNS; 43.1 µM with RPMI-8226 leukemia; > 100 µM in the experiment on COLO 205 colon; 23.1 µM in the experiment with OVCAR-4 ovarian; 31.9 µM with HCC-2998 colon; 19.7 µM in the experiment on ACHN renal. Further, the GI50 with SK-MEL-5 melanoma is 32.7 µM; in the experiment on MDA-MB-435 it was 34.7 µM; with CCRF-CEM leukemia, > 100 µM; in the experiment with TK-10 renal, 18 µM. The TGI is 59 µM in the experiment with SNB-19 CNS; > 100 µM in the experiment with RPMI-8226 leukemia; > 100 µM in the experiment with COLO 205 colon; 63 µM with OVCAR-4 ovarian; > 100 µM in the experiment on HCC-2998 colon; 53.7 µM with ACHN renal. The TGI was > 100 µM in the experiment on SK-MEL-5 melanoma, > 100 µM in the experiment with MDA-MB-435, > 100 µM in the experiment on CCRF-CEM leukemia and 39.4 µM in the experiment with TK-10 renal.
On to `CC(C)CNc1nc(N=[N+]=[N-])nc(NCC(C)C)n1`, for which the GI50 in the experiment with SNB-19 CNS, in the experiment with RPMI-8226 leukemia, in the experiment with COLO 205 colon, in the experiment on OVCAR-4 ovarian, in the experiment on HCC-2998 colon and in the experiment with ACHN renal was > 10 µM each time. Further, the GI50 in the experiment on SK-MEL-5 melanoma, in the experiment on MDA-MB-435, in the experiment with CCRF-CEM leukemia and in the experiment on TK-10 renal was > 10 µM in each case. Besides, the total growth inhibition concentration (TGI) in the experiment on SNB-19 CNS, in the experiment on RPMI-8226 leukemia, in the experiment on COLO 205 colon, with OVCAR-4 ovarian, with HCC-2998 colon and in the experiment with ACHN renal was > 10 µM each time. The concentration for total growth inhibition (TGI) with SK-MEL-5 melanoma, in the experiment with MDA-MB-435, in the experiment on CCRF-CEM leukemia and in the experiment on TK-10 renal was > 10 µM throughout.
On to `Brc1ccc(Br)nn1`, for which the GI50 is 3.77 µM in the experiment on SNB-19 CNS; 1.83 µM in the experiment on RPMI-8226 leukemia; 2.12 µM with COLO 205 colon; 1.29 µM with OVCAR-4 ovarian; 1.98 µM in the experiment with HCC-2998 colon; 1.8 µM in the experiment on ACHN renal. For the same molecule, the GI50 is 1.49 µM in the experiment on SK-MEL-5 melanoma, 1.75 µM in the experiment with MDA-MB-435, 0.404 µM in the experiment with CCRF-CEM leukemia and 2.56 µM with TK-10 renal. Also, the TGI with SNB-19 CNS amounted to 15.5 µM; with RPMI-8226 leukemia, 6.44 µM; in the experiment on COLO 205 colon it was 3.77 µM; in the experiment on OVCAR-4 ovarian, 2.77 µM; with HCC-2998 colon, 4.94 µM; with ACHN renal, 3.26 µM. Besides, the total growth inhibition concentration (TGI) in the experiment with SK-MEL-5 melanoma is 3.85 µM; in the experiment with MDA-MB-435, 3.55 µM; in the experiment on CCRF-CEM leukemia, 3.65 µM; with TK-10 renal, 6.37 µM.
For the molecule `CC[C@H](C)[C@H](NC(=O)C12CC(NC(C)=O)(C1)C2)C(=O)N(C)[C@H](C[C@@H](OC(C)=O)c1nc(C(=O)N[C@@H](Cc2ccccc2)C[C@H](C)C(=O)OC)cs1)C(C)C`, the GI50 is 0.607 µM in the experiment with SNB-19 CNS; 0.0585 µM in the experiment with RPMI-8226 leukemia; 0.0991 µM with COLO 205 colon; 0.885 µM with OVCAR-4 ovarian; 0.21 µM with HCC-2998 colon; 1.13 µM with ACHN renal. The concentration for 50% growth inhibition (GI50) with SK-MEL-5 melanoma was 0.0807 µM; in the experiment on MDA-MB-435, 0.033 µM; with CCRF-CEM leukemia, 0.273 µM; in the experiment with TK-10 renal, > 4.97 µM. Further, the TGI in the experiment with SNB-19 CNS is > 16.7 µM; in the experiment with RPMI-8226 leukemia, > 3.64 µM; with COLO 205 colon, 1.06 µM; with OVCAR-4 ovarian, > 16.7 µM; in the experiment with HCC-2998 colon it was > 16.7 µM; in the experiment with ACHN renal, > 16.7 µM. In addition, the total growth inhibition concentration (TGI) is 2.76 µM in the experiment with SK-MEL-5 melanoma, 0.501 µM with MDA-MB-435, > 16.7 µM with CCRF-CEM leukemia and > 16.7 µM with TK-10 renal.
Turning to `Nc1cccc2nsnc12`, the TGI with SNB-19 CNS was > 100 µM; in the experiment with RPMI-8226 leukemia, > 86.9 µM; with COLO 205 colon, > 100 µM; with OVCAR-4 ovarian it was > 100 µM; in the experiment on HCC-2998 colon, > 100 µM; with ACHN renal, > 100 µM. Moreover, the TGI in the experiment with SK-MEL-5 melanoma was > 100 µM; in the experiment with MDA-MB-435 it was > 100 µM; in the experiment on CCRF-CEM leukemia, > 82.4 µM; in the experiment on TK-10 renal, > 100 µM.
As to `C=C=[CH][Sn]([c]1ccccc1)([c]1ccccc1)[c]1ccccc1`, the GI50 was 1.81 µM in the experiment on SNB-19 CNS; 1.4 µM with RPMI-8226 leukemia; 1.52 µM in the experiment with COLO 205 colon; 1.47 µM in the experiment with OVCAR-4 ovarian; 1.76 µM in the experiment with HCC-2998 colon; 1.66 µM with ACHN renal. Also, the GI50 is 1.56 µM with SK-MEL-5 melanoma, 1.3 µM in the experiment on MDA-MB-435, 0.79 µM in the experiment on CCRF-CEM leukemia and 1.65 µM in the experiment with TK-10 renal. Also, the TGI turned out to be 3.34 µM in the experiment with SNB-19 CNS; 4.36 µM in the experiment on RPMI-8226 leukemia; 2.87 µM in the experiment with COLO 205 colon; 3.38 µM in the experiment with OVCAR-4 ovarian; 3.36 µM in the experiment with HCC-2998 colon; 3.16 µM with ACHN renal. Besides, the total growth inhibition concentration (TGI) in the experiment on SK-MEL-5 melanoma is 3.09 µM; in the experiment on MDA-MB-435 it was 2.68 µM; with CCRF-CEM leukemia, 3.4 µM; in the experiment on TK-10 renal, 3.1 µM.
For `OC(c1ccccc1)c1c(-c2ccccc2)oc(-c2ccccc2)c1C(O)c1ccccc1` (stereo not given), the concentration for total growth inhibition (TGI) was 28.6 µM in the experiment with SNB-19 CNS; 14 µM in the experiment on RPMI-8226 leukemia; 19.4 µM in the experiment with COLO 205 colon; 7.99 µM in the experiment with OVCAR-4 ovarian; 33 µM in the experiment on HCC-2998 colon; 19.1 µM with ACHN renal. Further, the TGI with SK-MEL-5 melanoma was 23.6 µM; in the experiment on MDA-MB-435 it was 21.1 µM; in the experiment with CCRF-CEM leukemia, 17.1 µM; in the experiment with TK-10 renal it was 29 µM.

The record behind these values is PubChem BioAssay (NCI).
